Patent publication US6465478B1 (dated 2002)
Counter-ions that a name gives are not always drawn.

Structure (SMILES) | melting point
NCCCN1CN(c2ccccc2)C2(CCN(C3(c4ccccc4)CCCCCC3)CC2)C1=O (as salt: HCl) | 150 to 154 °C
O=C1N(CCN2CCCCC2)CN(c2ccccc2)C12CCN(C1(c3ccccc3)CCCCCC1)CC2 (as salt: HCl) | 174 to 178 °C

Next, values leading:

melting point | Structure (SMILES)
216 to 220 °C | CC1(N2CCC3(CC2)C(=O)N(CCCN)CN3c2ccccc2)CCCCCC1 (as salt: HCl)
251 to 254 °C | CC1(N2CCC3(CC2)C(=O)NCN3c2ccccc2)CCC=CCC1 (as salt: hydrochloride)
50 to 53 °C | CC1(N2CCC3(CC2)C(=O)N(CCN2CCCCC2)CN3c2ccccc2)CCCCCC1 (as salt: HCl)
